Among the data in US7371741B2, “Estradiol derivatives and pharmaceutical compositions using same” (EntreMed, Inc., priority 2003, dated 2008) are IC50 values, retold here.

Common to all, as to assay type: cell-based
Assay [1] concerns MDA-MB-231: breast cancer. Description: In vitro anti-proliferative activity, BrdU incorporation, MDA-MB-231. The conditions noted are these: MDA-MB-231 cells, 50% inhibition of proliferation, BrdU incorporation into DNA. Here is the method:
(§1) Determination of in vitro anti-proliferative activity of substituted estradiol analogs: In vitro anti-proliferative or anti-mitogenic activity was determined using a commercially available cell-based assay in 96-well tissue culture plates with assessment of proliferation by evaluating DNA synthesis through incorporation into DNA of immuno-reactive (BrdU) nucleotides. The cell types used are commercially available (MDA-MB-231: breast cancer; U87-MG: glioblastoma; PC3: prostate cancer; HUVEC: non-transformed early passage human umbilical vein endothelial cells). These assays, and the many assay variations possible to determine in vitro anti-proliferative or anti-mitogenic activity, are well known to those skilled in the art. The concentration which causes 50% inhibition of proliferation (IC50) was estimated from a dose-response curve generally carried out with a range of concentrations from ≧100 microg/mL to ≦0.01 microg/mL.
Background: Uptake of a labelled nucleoside into DNA is a usual measure of proliferation.

The next assay relates to PC3: prostate cancer. The assay is described as follows: In vitro anti-proliferative activity, BrdU incorporation, PC3. Conditions: PC3 cells, 50% inhibition of proliferation, BrdU incorporation into DNA. Here is the method: as §1
A further assay deals with U87-MG: glioblastoma. The assay is described as follows: In vitro anti-proliferative activity, BrdU incorporation, U87-MG. Conditions: U87-MG cells, 50% inhibition of proliferation, BrdU incorporation into DNA. The method, then: as §1
The subject of assay [2] is HUVEC: non-transformed early passage human umbilical vein endothelial cells. The assay is described as follows: In vitro anti-proliferative activity, BrdU incorporation, HUVEC. Conditions: 50% inhibition of proliferation, BrdU incorporation into DNA. The method, then: as §1

For orientation: IC50 means the concentration that gives 50% inhibition. `CC=C1CC[C@H]2[C@@H]3CCc4cc(N)c(OC)cc4[C@H]3CC[C@]12C` [Compound 109, 3-amino-17-ethylene-2-methoxyestra-1,3,5(10)-triene]: the IC50 in assay [1] was determined as 1940 ± 270 nM; with PC3: prostate cancer it was 920 ± 110 nM; with U87-MG: glioblastoma, 2.35 ± 0.41 µM; in assay [2], 720 ± 100 nM.

Regarding `COc1cc2c(cc1OS(N)(=O)=O)CC[C@@H]1[C@@H]2CC[C@]2(C)CCC[C@@H]12` [Compound 46, 3-sulfamate-2-methoxyestra-1,3,5(10)-triene], the IC50 in assay [1] worked out at 380 ± 150 nM; with PC3: prostate cancer, 380 ± 210 nM; in the assay on U87-MG: glioblastoma, 0.72 ± 0.04 µM; in assay [2] it was 210 ± 150 nM.

Regarding `COc1cc2c(cc1NC=O)CC[C@@H]1[C@@H]2CC[C@]2(C)C(O)CC[C@@H]12` (some centres unmarked) [Compound 43, 3-Formamide-2-methoxyestra-1,3-5(10)-trien-17-ol], the IC50 in assay [1] came to 780 ± 10 nM; with PC3: prostate cancer it was 1340 ± 20 nM; in the assay with U87-MG: glioblastoma, 2.7 ± 0.22 µM; in assay [2] it was 70 ± 20 nM.

For `CCOc1cc2c(cc1OS(N)(=O)=O)CC[C@@H]1[C@@H]2CC[C@]2(C)C(C)CC[C@@H]12` (some centres unmarked) [Compound 119, 3-sulfamate-17-methyl-2-ethoxyestra-1,3,5(10)-triene], the IC50 in assay [1] was 1550 ± 390 nM; with PC3: prostate cancer, 830 nM; in the assay on U87-MG: glioblastoma, 6.41 µM; in assay [2] it was 910 ± 90 nM.

In the case of `COc1cc2c(cc1O)CC[C@@H]1[C@@H]2CC[C@]2(C)[C@@H](C)CC[C@@H]12` [Compound 16, 2-methoxy-17β-methylestra-1,3,5(10)-triene-3-ol], the IC50 in assay [1] (Homo sapiens) was determined as 3330 ± 230 nM; with PC3: prostate cancer (Homo sapiens, PC-3), 6460 ± 2310 nM; with U87-MG: glioblastoma (Homo sapiens, U-87 MG), 9.39 ± 0.43 µM; in assay [2] (Homo sapiens) it was 2400 ± 450 nM.

Consider `CCOc1cc2c(cc1O)CC[C@@H]1[C@@H]2CC[C@]2(C)C(O)CC[C@@H]12` (some centres unmarked) [Compound 2, 2-Ethoxyestra-1,3,5(10)-trien-3,17-diol], for which the values for the IC50 in assay [1] (Homo sapiens) and in assay [2] (Homo sapiens) were 650 ± 230 nM and 140 ± 70 nM, respectively.

Take `COc1cc2c(cc1N)CC[C@@H]1[C@@H]2CC[C@]2(C)CCC[C@@H]12` [Compound 61, 3-amino-2-methoxyestra-1,3,5(10)-triene]: the IC50 in assay [1] (Homo sapiens) is 7620 ± 430 nM; in the assay on PC3: prostate cancer (Homo sapiens, PC-3), 8630 ± 180 nM; in the assay on U87-MG: glioblastoma (Homo sapiens, U-87 MG), 10.2 ± 3.78 µM; in assay [2] (Homo sapiens), 6430 ± 1320 nM.

As to `COc1cc2c(cc1F)CC[C@@H]1[C@@H]2CC[C@]2(C)C(=O)CC[C@@H]12` [Compound 40, 3-fluoro-2-methoxyestra-1,3,5(10)-trien-17-one], the IC50 in assay [1] (Homo sapiens) is 2940 ± 800 nM; in the assay on PC3: prostate cancer (Homo sapiens, PC-3), 9260 ± 730 nM; in the assay on U87-MG: glioblastoma (Homo sapiens, U-87 MG), 26 ± 3.38 µM; in assay [2] (Homo sapiens) it was 2100 ± 230 nM.

With `C=C1CC[C@H]2[C@@H]3CCc4cc(N)c(OC)cc4[C@H]3CC[C@]12C` [Compound 85, 3-amino-17-methylene-2-methoxyestra-1,3,5(10)-triene], the IC50 stood at 2110 ± 570 nM in assay [1] (Homo sapiens); 2400 ± 390 nM in the assay with PC3: prostate cancer (Homo sapiens, PC-3); 5.51 ± 0.46 µM with U87-MG: glioblastoma (Homo sapiens, U-87 MG); 1000 ± 190 nM in assay [2] (Homo sapiens).

With `COc1cc2c(cc1O)CC[C@@H]1[C@@H]2CC[C@]2(C)CCC[C@@H]12` [Compound 7, 2-methoxyestra-1,3,5(10)-triene-3-ol], the IC50 in assay [1] (Homo sapiens) worked out at 2200 ± 520 nM; in the assay on PC3: prostate cancer (Homo sapiens, PC-3), 8490 ± 2490 nM; with U87-MG: glioblastoma (Homo sapiens, U-87 MG), 7.35 ± 0.43 µM; in assay [2] (Homo sapiens), 1320 ± 560 nM.

On to `COc1cc2c(cc1O)CC[C@@H]1[C@@H]2CC[C@]2(C)C(=O)CC[C@@H]12` [Compound 4, 2-methoxyestra-1,3,5(10)-trien-3-ol-17-one, reference compound], for which the IC50 in assay [1] (Homo sapiens) came out at 11700 nM; in the assay on PC3: prostate cancer (Homo sapiens, PC-3) it was 13700 nM; with U87-MG: glioblastoma (Homo sapiens, U-87 MG) it was 10.5 µM; in assay [2] (Homo sapiens), 12600 nM.

In the case of `C=C1CC[C@H]2[C@@H]3CCc4cc(NC=O)c(OCC)cc4[C@H]3CC[C@]12C` [Compound 89, 3-formamide-17-methylene-2-ethoxyestra-1,3,5(10)-triene], the concentration for half-maximal inhibition (IC50) in assay [1] stood at 2410 ± 130 nM; in the assay on PC3: prostate cancer it was 1590 ± 190 nM; in the assay on U87-MG: glioblastoma, 7.73 µM; in assay [2], 2100 ± 20 nM.

Consider `COc1cc2c(cc1NC=O)CC[C@@H]1[C@@H]2CC[C@]2(C)CCC[C@@H]12` [Compound 64, 3-formamide-2-methoxyestra-1,3,5(10)-triene], for which the 50% inhibitory concentration (IC50) in assay [1] was 8290 ± 1640 nM; in the assay on PC3: prostate cancer, 9240 ± 590 nM; with U87-MG: glioblastoma, 23.2 ± 2 µM; in assay [2], 5800 ± 730 nM.

On to `COc1cc2c(cc1C(=O)O)CC[C@@H]1[C@@H]2CC[C@]2(C)C(=O)CC[C@@H]12` [Compound 28, 2-methoxy-3-(carboxylic acid)estra-1,3,5(10)-triene-17-one], for which the IC50 in assay [1] was over 100000 nM; in the assay on PC3: prostate cancer, over 100000 nM; in the assay on U87-MG: glioblastoma, over 100 µM; in assay [2], over 100000 nM.

For `COc1cc2c(cc1C(N)=O)CC[C@@H]1[C@@H]2CC[C@]2(C)CCC[C@@H]12` [Compound 58, (2-Methoxyestra-1,3,5(10)-trien-3-yl)-3-carboxamide], the IC50 came out at 5230 ± 1950 nM in assay [1], 2580 ± 360 nM with PC3: prostate cancer, 4.52 ± 1.3 µM in the assay on U87-MG: glioblastoma and 1420 ± 410 nM in assay [2].

In the case of `CC=C1CC[C@H]2[C@@H]3CCc4cc(OS(N)(=O)=O)c(OC)cc4[C@H]3CC[C@]12C` [Compound 94, 3-sulfamate-17-ethylene-2-methoxyestra-1,3,5(10)-triene], the half-inhibitory concentration (IC50) was determined as 580 ± 20 nM in assay [1], 660 ± 50 nM in the assay with PC3: prostate cancer, 0.64 ± 0.09 µM with U87-MG: glioblastoma and 590 nM in assay [2].

For the compound `CC=C1CC[C@H]2[C@@H]3CCc4cc(NC=O)c(OC)cc4[C@H]3CC[C@]12C` [Compound 112, 3-formamide-17-ethylene-2-methoxyestra-1,3,5(10)-triene], the half-inhibitory concentration (IC50) in assay [1] is 560 ± 20 nM; with PC3: prostate cancer, 740 ± 10 nM; in the assay with U87-MG: glioblastoma, 0.77 ± 0.06 µM; in assay [2] it was 580 nM.

Take `C=C1CC[C@H]2[C@@H]3CCc4cc(NC=O)c(OC)cc4[C@H]3CC[C@]12C` [Compound 88, 3-formamide-17-methylene-2-methoxyestra-1,3,5(10)-triene]: the IC50 in assay [1] was 300 ± 80 nM; in the assay with PC3: prostate cancer it was 240 ± 60 nM; in the assay on U87-MG: glioblastoma, 0.53 ± 0.24 µM; in assay [2], 220 ± 30 nM.

For `C=Cc1cc2c(cc1OC)[C@H]1CC[C@]3(C)[C@@H](O)CC[C@H]3[C@@H]1CC2` [Compound 25a, 2-methoxy-3-(vinyl)estra-1,3,5(10)-triene-17β-ol], the IC50 worked out at 8930 ± 610 nM in assay [1] (Homo sapiens); 6340 ± 80 nM in the assay on PC3: prostate cancer (Homo sapiens, PC-3); 7.81 ± 1.3 µM with U87-MG: glioblastoma (Homo sapiens, U-87 MG); 1960 ± 50 nM in assay [2] (Homo sapiens).

In the case of `CC#Cc1cc2c(cc1O)CCC1C2CC[C@@]2(C)C1CC[C@@H]2O` (some centres unmarked) [Compound 3], the 50% inhibitory concentration (IC50) was 3990 ± 1120 nM in assay [1] (Homo sapiens); 2220 ± 130 nM in the assay on PC3: prostate cancer (Homo sapiens, PC-3); 2.68 ± 0.22 µM with U87-MG: glioblastoma (Homo sapiens, U-87 MG); 520 ± 140 nM in assay [2] (Homo sapiens).

For `C=C1CC[C@H]2[C@@H]3CCc4cc(OS(=O)(=O)C(F)(F)F)c(OC)cc4[C@H]3CC[C@]12C` [Compound 73, 3-triflic-17-methylene-2-methoxyestra-1,3,5(10)-triene], the IC50 in assay [1] is over 100000 nM; with PC3: prostate cancer it was over 100000 nM; with U87-MG: glioblastoma, over 100 µM; in assay [2], over 100000 nM.

As to `C=C1CC[C@H]2[C@@H]3CCc4cc(O)c(OC)cc4[C@H]3CC[C@]12C` [Compound 10, 2-methoxy-17(20)-methyleneestra-1,3,5(10)-triene-3-ol], the IC50 amounted to 580 ± 310 nM in assay [1] and 260 ± 230 nM in assay [2].

As for `COc1cc2c(cc1NC=O)CC[C@@H]1[C@@H]2CC[C@]2(C)C(C)CC[C@@H]12` (some centres unmarked) [Compound 136, 3-formamide-17-methyl-2-methoxyestra-1,3,5(10)-triene], the IC50 in assay [1] was found to be 610 nM; with PC3: prostate cancer it was 700 ± 100 nM; in the assay on U87-MG: glioblastoma, 0.64 ± 0.01 µM; in assay [2], 590 nM.

With `C=Cc1cc2c(cc1OC)[C@H]1CC[C@]3(C)C(=O)CC[C@H]3[C@@H]1CC2` [Compound 25, 2-methoxy-3-(vinyl)estra-1,3,5(10)-triene-17-one], the IC50 in assay [1] (Homo sapiens) worked out at 2570 ± 290 nM; with PC3: prostate cancer (Homo sapiens, PC-3), 1430 ± 400 nM; in the assay with U87-MG: glioblastoma (Homo sapiens, U-87 MG), 2.2 ± 0.06 µM; in assay [2] (Homo sapiens), 580 ± 10 nM.

In the case of `C=C1CC[C@H]2[C@@H]3CCc4cc(C(N)=O)c(OC)cc4[C@H]3CC[C@]12C` [Compound 82, 2-Methoxy-17-methyleneestra-1,3,5(10)-triene-3-carboxamide], the IC50 in assay [1] (Homo sapiens) amounted to 190 ± 80 nM; with PC3: prostate cancer (Homo sapiens, PC-3) it was 250 ± 10 nM; in the assay on U87-MG: glioblastoma (Homo sapiens, U-87 MG) it was 0.25 ± 0.02 µM; in assay [2] (Homo sapiens), 120 ± 60 nM.

On to `CC=C1CCC2C3CCc4cc(O)c(OC)cc4C3CCC12C` (centres unmarked) [Compound 13, 2-Methoxy-19-norpregna-1,3,5(10)17(20)-tetraene-3-ol], for which the IC50 in assay [1] came out at 2630 ± 200 nM; in the assay on PC3: prostate cancer it was 1150 ± 400 nM; in the assay with U87-MG: glioblastoma it was 2.37 ± 0.34 µM; in assay [2], 370 ± 80 nM.

`COc1cc2c(cc1NC=O)CC[C@@H]1[C@@H]2CC[C@]2(C)C(=O)CC[C@@H]12` [Compound 43A, 3-formamide-2-methoxyestra-1,3,5(10)-triene-17-one]: the IC50 in assay [1] stood at 1220 ± 600 nM; in the assay with PC3: prostate cancer, 610 ± 270 nM; with U87-MG: glioblastoma, 0.94 ± 0.09 µM; in assay [2], 530 ± 220 nM.
